Laboratory results published in the supplement of paper PMC10307832.

Tests used:
Assay in all cases: relative viability (nuclei count vs DMSO), 5 days (fraction); higher = more cells survive
MK-8033 + OSI-027 = compound: Cn1cc(-c2cnc3ccc4ccc(CS(=O)(=O)NCc5ccccn5)cc4c(=O)c3c2)cn1 [MK-8033] + COc1cccc2cc(-c3nc([C@H]4CC[C@H](C(=O)O)CC4)n4ncnc(N)c34)[nH]c12 [OSI-027] (partner 0.5 µM)
Outline: (§1)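 Lung cancer cell lines were pin-tool dosed in 1536-well plates on the day after seeding, with either a lone drug or a fixed anchor-drug dose plus five library-drug doses (not always all listed) in √10 steps. Nuclei were counted on 4× images after 5 days. Relative viability is the ratio of treated-well to vehicle-well nuclei counts, with each value a median of duplicate plates.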

RU-SKI 43 + Luminespib = compound: CC[C@@H](C)CNCC(=O)N1CCC2=C([C@@H]1COC3=CC=CC(=C3)C)C=CS2 [RU-SKI 43] + CCNC(=O)c1noc(-c2cc(C(C)C)c(O)cc2O)c1-c1ccc(CN2CCOCC2)cc1 [Luminespib] (partner 0.01 µM)
Outline: as §1

Irinotecan + Foretinib = compound: CCc1c2c(nc3ccc(OC(=O)N4CCC(N5CCCCC5)CC4)cc13)-c1cc3c(c(=O)n1C2)COC(=O)[C@]3(O)CC [Irinotecan] + COc1cc2c(Oc3ccc(NC(=O)C4(C(=O)Nc5ccc(F)cc5)CC4)cc3F)ccnc2cc1OCCCN1CCOCC1 [Foretinib] (partner 0.25 µM)
Outline: as §1

RU-SKI 43 + Pemetrexed = compound: CC[C@@H](C)CNCC(=O)N1CCC2=C([C@@H]1COC3=CC=CC(=C3)C)C=CS2 [RU-SKI 43] + Nc1nc2[nH]cc(CCc3ccc(C(=O)N[C@@H](CCC(=O)O)C(=O)O)cc3)c2c(=O)[nH]1 [Pemetrexed] (partner 0.2 µM)
Outline: as §1

Cell Line	relative viability (MK-8033 + OSI-027; first compound 0.02 µM)	relative viability (MK-8033 + OSI-027; first compound 0.06325 µM)	relative viability (MK-8033 + OSI-027; first compound 0.2 µM)	relative viability (MK-8033 + OSI-027; first compound 0.6325 µM)	relative viability (MK-8033 + OSI-027; first compound 2 µM)	relative viability (RU-SKI 43 + Luminespib; first compound 0.1 µM)	relative viability (RU-SKI 43 + Luminespib; first compound 0.3162 µM)	relative viability (RU-SKI 43 + Luminespib; first compound 1 µM)	relative viability (RU-SKI 43 + Luminespib; first compound 3.162 µM)	relative viability (RU-SKI 43 + Luminespib; first compound 10 µM)	relative viability (Irinotecan + Foretinib; first compound 0.6325 µM)	relative viability (Irinotecan + Foretinib; first compound 2 µM)	relative viability (Irinotecan + Foretinib; first compound 6.325 µM)	relative viability (Irinotecan + Foretinib; first compound 20 µM)	relative viability (RU-SKI 43 + Pemetrexed; first compound 0.1 µM)	relative viability (RU-SKI 43 + Pemetrexed; first compound 0.3162 µM)	relative viability (RU-SKI 43 + Pemetrexed; first compound 1 µM)	relative viability (RU-SKI 43 + Pemetrexed; first compound 3.162 µM)	relative viability (RU-SKI 43 + Pemetrexed; first compound 10 µM)
SK-MES-1	0.621	0.592	0.566	0.605	0.535	0.761	0.854	0.818	0.929	0.75	0.915	0.644	0.441	0.285	0.962	1.13	1.12	0.964	0.916
HOP-62	0.83	0.821	0.756	0.84	0.896	1	1.29	1.07	0.984	1.04	0.7	0.256	0.199	0.195	0.327	0.292	0.344	0.334	0.284
NCI-H520	0.256	0.287	0.302	0.25	0.222	0.191	0.18	0.257	0.209	0.216	0.623	0.679	0.352	0.283	0.651	0.801	0.831	0.858	0.636
EBC-1	–	–	–	–	–	–	–	–	–	–	0.0988	0.1	0.115	0.112	–	–	–	–	–
BEN	0.305	0.298	0.295	0.284	0.244	0.423	0.277	0.525	0.218	0.421	0.328	0.613	0.206	0.324	0.941	0.682	0.997	0.665	0.825
NCI-H322M	0.568	0.442	0.598	0.604	0.524	0.858	0.932	0.877	0.884	0.727	0.971	0.882	0.491	0.368	0.642	0.68	0.662	0.673	0.572
LU99A	0.315	0.251	0.299	0.298	0.307	0.195	0.24	0.211	0.259	0.192	0.366	0.253	0.187	0.225	0.164	0.207	0.168	0.19	0.162
NCI-H2405	0.595	0.538	0.594	0.604	0.604	0.639	0.474	0.543	0.736	0.486	–	0.897	0.394	0.307	1.16	1.14	1.11	1.21	1.13
NCI-H1395	0.557	0.555	0.601	0.644	0.615	0.733	0.899	0.862	0.649	0.635	0.841	0.592	0.498	0.495	0.992	0.805	1.2	0.855	0.967
HCC-44	0.472	0.508	0.465	0.605	0.522	1.02	–	1.16	1.02	0.894	–	–	–	–	0.624	0.652	0.639	0.721	0.69
NCI-H441	0.653	0.597	0.698	0.788	0.469	0.285	0.324	0.436	0.316	0.375	0.786	0.66	0.29	0.342	0.28	0.273	0.277	0.255	0.219
Calu-6	–	–	–	–	–	–	–	–	–	–	0.605	0.429	0.168	0.087	–	–	–	–	–
CAL-12T	0.551	0.655	0.519	0.695	0.536	0.207	0.364	0.179	0.19	0.363	–	0.924	0.398	0.293	1.16	1.36	1.39	1.2	1.22
HCC-78	0.352	–	0.329	0.34	0.398	–	–	–	–	–	0.695	0.491	0.282	0.24	0.916	0.925	0.933	0.92	0.923
NCI-H2170	0.682	0.639	0.7	0.732	0.707	0.751	0.73	0.73	0.755	0.67	1.01	0.616	0.252	0.214	0.251	0.297	0.262	0.275	0.243
NCI-H1623	0.411	0.409	0.495	0.442	0.477	0.452	0.478	0.468	0.577	0.447	0.621	0.64	0.299	0.279	–	–	–	–	–
NCI-H23	0.496	0.525	0.553	0.605	0.538	0.209	0.181	0.209	–	0.224	0.471	0.258	0.227	0.25	0.787	0.687	0.834	0.715	0.705
COR-L 105	0.687	0.429	0.635	0.638	0.671	0.871	0.837	0.643	0.772	0.686	1.11	0.8	0.682	0.524	1.11	1.12	1.17	1.04	1.03
LOU-NH91	0.74	0.453	0.7	0.667	0.752	0.307	0.304	0.431	0.36	0.317	0.871	0.756	0.374	0.294	0.399	0.345	0.456	0.389	0.378
NCI-H650	0.539	0.527	0.491	0.503	0.554	0.748	0.861	0.901	0.852	0.727	0.981	0.774	0.226	0.15	0.907	0.962	–	0.879	0.932

Cell Line	relative viability (MK-8033 + OSI-027; first compound 0.02 µM)	relative viability (MK-8033 + OSI-027; first compound 0.06325 µM)	relative viability (MK-8033 + OSI-027; first compound 0.2 µM)	relative viability (MK-8033 + OSI-027; first compound 0.6325 µM)	relative viability (MK-8033 + OSI-027; first compound 2 µM)	relative viability (RU-SKI 43 + Luminespib; first compound 0.1 µM)	relative viability (RU-SKI 43 + Luminespib; first compound 0.3162 µM)	relative viability (RU-SKI 43 + Luminespib; first compound 1 µM)	relative viability (RU-SKI 43 + Luminespib; first compound 3.162 µM)	relative viability (RU-SKI 43 + Luminespib; first compound 10 µM)	relative viability (Irinotecan + Foretinib; first compound 0.6325 µM)	relative viability (Irinotecan + Foretinib; first compound 2 µM)	relative viability (Irinotecan + Foretinib; first compound 6.325 µM)	relative viability (Irinotecan + Foretinib; first compound 20 µM)	relative viability (RU-SKI 43 + Pemetrexed; first compound 0.1 µM)	relative viability (RU-SKI 43 + Pemetrexed; first compound 0.3162 µM)	relative viability (RU-SKI 43 + Pemetrexed; first compound 1 µM)	relative viability (RU-SKI 43 + Pemetrexed; first compound 3.162 µM)	relative viability (RU-SKI 43 + Pemetrexed; first compound 10 µM)
NCI-H2023	0.432	0.288	0.335	0.319	0.223	0.919	1	0.887	0.856	0.876	0.832	0.842	0.295	0.116	0.249	0.259	0.286	0.21	0.243
NCI-H1563	0.789	0.8	0.727	0.807	0.724	0.51	0.502	0.51	0.529	0.495	0.966	0.928	0.975	0.425	0.772	0.785	0.84	0.725	0.733
LCLC-103H	0.412	0.469	0.437	0.448	0.509	0.934	1.16	1.1	1.1	0.971	0.59	0.522	0.373	0.347	0.469	0.464	0.482	0.492	0.5
HCC-15	0.692	0.588	0.64	0.648	0.656	0.427	0.249	0.478	0.285	0.419	–	0.695	0.23	0.161	0.215	0.229	0.241	0.217	0.2
NCI-H838	0.374	0.368	0.361	0.407	0.412	0.237	0.241	0.288	0.237	0.232	1.11	0.743	0.392	0.298	0.256	0.248	0.251	0.251	0.249
NCI-H2009	0.628	0.612	0.597	0.617	0.626	0.981	1.12	0.984	1.02	1.03	0.973	0.688	0.311	0.16	1.06	1.17	1.14	1.06	1.08
NCI-H2228	0.692	0.562	0.576	0.559	0.552	0.178	0.15	0.177	0.149	0.199	0.925	0.731	0.293	0.238	0.288	0.353	0.302	0.376	0.299
NCI-H460	0.643	0.627	0.547	0.686	0.472	0.035	0.0298	0.0295	0.0325	0.0355	0.815	0.418	0.136	0.0629	0.0581	0.0578	0.0612	0.0618	0.0606
NCI-H522	0.806	0.627	0.661	0.729	0.722	1.28	1.14	1.14	1.05	1.17	–	–	–	–	1.26	0.966	1.18	1.02	1.16
NCI-H1703	–	–	–	–	–	–	–	–	–	–	0.321	0.433	0.512	0.367	–	–	–	–	–
NCI-H1793	0.247	0.253	0.233	0.282	0.2	0.167	0.154	0.205	0.154	0.183	–	0.501	0.226	0.185	1.01	0.995	0.941	0.772	1.02
NCI-H596	0.798	0.612	0.607	0.706	0.599	0.89	1.05	1.06	1.12	0.744	0.841	0.783	0.621	0.632	0.537	0.473	0.552	0.507	0.508
NCI-H727	0.667	–	0.652	0.583	0.551	0.365	0.393	0.26	0.362	0.664	0.65	0.501	0.477	0.379	–	–	–	–	–
NCI-H1648	–	0.261	0.261	–	0.25	–	–	–	–	–	–	–	–	–	0.682	0.861	0.531	0.659	0.558
NCI-H1299	–	–	–	–	–	–	–	–	–	–	0.888	0.909	0.483	0.212	–	–	–	–	–
HCC-366	1.1	0.85	0.838	0.945	0.791	–	–	–	–	–	0.346	0.114	0.0566	0.0694	0.187	0.151	0.154	0.219	0.228
NCI-H1792	0.655	0.611	0.683	0.628	0.512	0.462	0.568	0.447	0.492	0.456	–	–	–	–	0.734	1.04	1.24	0.77	0.842
IA-LM	–	–	–	–	–	–	–	–	–	–	0.951	0.62	0.148	0.117	–	–	–	–	–
ABC-1	0.417	0.339	0.415	0.457	0.506	0.68	0.434	0.485	0.673	0.811	–	0.617	0.28	0.152	–	–	–	–	–
A549	–	–	–	–	–	–	–	–	–	–	0.885	0.611	0.122	0.0515	–	–	–	–	–
